Results on nine compounds are retold here after ChEMBL document CHEMBL1154843, “Nakijiquinones J--R, sesquiterpenoid quinones with an amine residue from okinawan marine sponges” (J Nat Prod, 2010).

In assay [1] the target is Epidermal growth factor receptor (Homo sapiens) (UniProt P00533). The assay is described as follows: Inhibition of EGFR at 1 mM.
For assay [2], the target named is Receptor tyrosine-protein kinase erbB-2 (Homo sapiens) (UniProt P04626). The assay is described as follows: Inhibition of HER2 at 1 mM.
Receptor tyrosine-protein kinase erbB-2 (Homo sapiens), sequence (P04626 whole entry): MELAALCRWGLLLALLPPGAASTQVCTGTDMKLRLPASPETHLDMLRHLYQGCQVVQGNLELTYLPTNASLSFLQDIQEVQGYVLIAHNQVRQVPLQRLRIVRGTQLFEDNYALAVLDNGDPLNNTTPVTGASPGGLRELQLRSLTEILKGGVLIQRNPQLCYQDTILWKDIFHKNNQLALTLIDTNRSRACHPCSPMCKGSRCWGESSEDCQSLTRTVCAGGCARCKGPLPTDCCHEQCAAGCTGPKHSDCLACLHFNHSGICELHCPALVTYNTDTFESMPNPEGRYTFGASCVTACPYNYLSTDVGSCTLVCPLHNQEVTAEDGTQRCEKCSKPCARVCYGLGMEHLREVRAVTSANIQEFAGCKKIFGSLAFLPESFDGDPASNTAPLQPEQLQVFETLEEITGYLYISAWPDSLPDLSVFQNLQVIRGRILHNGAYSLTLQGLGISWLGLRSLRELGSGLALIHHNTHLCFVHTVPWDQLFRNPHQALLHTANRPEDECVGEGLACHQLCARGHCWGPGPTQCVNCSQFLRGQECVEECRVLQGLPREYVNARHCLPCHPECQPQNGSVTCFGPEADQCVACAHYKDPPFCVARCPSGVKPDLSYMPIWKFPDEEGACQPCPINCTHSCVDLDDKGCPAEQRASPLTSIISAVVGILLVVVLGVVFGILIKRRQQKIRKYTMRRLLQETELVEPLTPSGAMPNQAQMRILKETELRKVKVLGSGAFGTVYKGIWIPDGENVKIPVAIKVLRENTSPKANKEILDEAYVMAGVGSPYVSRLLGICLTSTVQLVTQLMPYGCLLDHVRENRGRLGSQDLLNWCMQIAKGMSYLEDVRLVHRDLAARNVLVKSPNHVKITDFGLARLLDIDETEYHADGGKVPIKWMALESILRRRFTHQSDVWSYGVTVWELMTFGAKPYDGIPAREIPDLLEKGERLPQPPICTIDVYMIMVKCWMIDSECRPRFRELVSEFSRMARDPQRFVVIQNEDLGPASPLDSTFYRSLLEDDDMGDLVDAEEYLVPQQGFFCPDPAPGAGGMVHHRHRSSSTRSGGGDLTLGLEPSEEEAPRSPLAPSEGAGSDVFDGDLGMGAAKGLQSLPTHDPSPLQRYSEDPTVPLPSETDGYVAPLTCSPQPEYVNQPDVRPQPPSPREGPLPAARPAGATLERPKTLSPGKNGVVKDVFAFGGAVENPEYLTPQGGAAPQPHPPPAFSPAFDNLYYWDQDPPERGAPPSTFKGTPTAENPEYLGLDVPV

The structures appear in SMILES notation. Activity calls are given as the source filed them. The calls are words filed in the database; no cut-off is given here.

Epidermal growth factor receptor (Homo sapiens), sequence (P00533 whole entry): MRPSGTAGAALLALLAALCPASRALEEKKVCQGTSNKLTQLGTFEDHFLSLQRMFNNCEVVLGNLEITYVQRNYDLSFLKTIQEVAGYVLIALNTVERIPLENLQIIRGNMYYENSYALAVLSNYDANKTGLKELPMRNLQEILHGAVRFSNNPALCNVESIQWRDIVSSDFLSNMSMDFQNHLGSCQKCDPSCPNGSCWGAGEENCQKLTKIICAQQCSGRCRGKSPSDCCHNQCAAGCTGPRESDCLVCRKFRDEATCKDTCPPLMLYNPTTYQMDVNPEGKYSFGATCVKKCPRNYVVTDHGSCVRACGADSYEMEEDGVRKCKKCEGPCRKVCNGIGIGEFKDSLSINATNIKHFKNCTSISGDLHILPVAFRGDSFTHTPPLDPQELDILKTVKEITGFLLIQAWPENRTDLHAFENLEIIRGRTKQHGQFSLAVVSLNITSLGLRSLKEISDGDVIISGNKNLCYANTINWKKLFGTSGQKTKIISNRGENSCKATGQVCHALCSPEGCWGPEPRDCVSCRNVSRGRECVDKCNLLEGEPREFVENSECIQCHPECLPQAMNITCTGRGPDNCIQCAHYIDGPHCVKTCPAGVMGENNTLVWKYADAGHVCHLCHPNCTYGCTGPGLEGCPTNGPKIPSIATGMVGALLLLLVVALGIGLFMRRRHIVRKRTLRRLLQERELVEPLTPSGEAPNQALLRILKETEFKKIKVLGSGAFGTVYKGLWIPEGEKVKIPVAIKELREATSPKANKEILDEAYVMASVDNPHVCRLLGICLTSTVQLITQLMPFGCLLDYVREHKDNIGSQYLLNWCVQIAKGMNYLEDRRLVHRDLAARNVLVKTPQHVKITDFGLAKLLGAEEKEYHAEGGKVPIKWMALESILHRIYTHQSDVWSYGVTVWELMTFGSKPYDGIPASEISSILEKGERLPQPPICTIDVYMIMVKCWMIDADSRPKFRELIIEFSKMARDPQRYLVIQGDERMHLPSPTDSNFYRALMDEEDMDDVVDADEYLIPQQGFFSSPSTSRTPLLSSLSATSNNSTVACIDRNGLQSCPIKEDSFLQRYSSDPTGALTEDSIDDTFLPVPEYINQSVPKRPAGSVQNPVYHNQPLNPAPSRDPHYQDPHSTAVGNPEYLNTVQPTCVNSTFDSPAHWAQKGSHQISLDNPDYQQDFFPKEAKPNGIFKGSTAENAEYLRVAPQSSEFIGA

Broadly, the inhibition is the drop in the measured response relative to a control, in per cent. As to `C[C@H]1CC=C2[C@@H](CCCC2(C)C)[C@]1(C)CC1=C(O)C(=O)C=C(NCCc2ccccc2)C1=O`, the inhibition in assay [1] was found to be 76%. Besides, the inhibition result in assay [2] is “inactive”.
Turning to `CC[C@H](C)CNC1=CC(=O)C(O)=C(C[C@]2(C)[C@@H](C)CC[C@]3(C)C(C)=CCC[C@@H]23)C1=O`, the inhibition result in assay [1] and in assay [2] was “inactive” each time.
In the case of `CC1=CCC[C@H]2[C@](C)(CC3=C(O)C(=O)C=C(NCCC(C)C)C3=O)[C@@H](C)CC[C@]12C`, in assay [1], the inhibition result was “inactive”. In assay [2], this compound gave an inhibition of 66%.
The matching figures for `CC1=CCC[C@H]2[C@](C)(CC3=C(O)C(=O)C=C(NCCc4ccccc4)C3=O)[C@@H](C)CC[C@]12C`: “inactive” and “inactive”.
The matching figures for `CC[C@H](C)CNC1=CC(=O)C(O)=C(C[C@@]2(C)[C@@H]3CCCC(C)(C)C3=CC[C@@H]2C)C1=O`: “inactive” and “inactive”.
For `CC1=CCC[C@H]2[C@](C)(CC3=C(O)C(=O)C=C(NCCS(=O)(=O)O)C3=O)[C@@H](C)CC[C@]12C` the same measures were greater than 99% and 52%.
For `C=C1CCC[C@H]2[C@](C)(CC3=C(O)C(=O)C=C(NC[C@@H](C)CC)C3=O)[C@@H](C)CC[C@]12C`, the inhibition entry in assay [1] and in assay [2] was “inactive” in each case.
For `CC(C)CCNC1=CC(=O)C(O)=C(C[C@@]2(C)[C@@H]3CCCC(C)(C)C3=CC[C@@H]2C)C1=O`, the inhibition result in assay [1] and in assay [2] was “inactive” throughout.
Turning to `CC1=CCC[C@H]2[C@](C)(CC3=C(O)C(=O)C=C(NCC(C)C)C3=O)[C@@H](C)CC[C@]12C`, the inhibition result in assay [1] is “inactive”. Further, in assay [2], the inhibition is 59%.
